The values below come from patent US20240207292A1, “BORONIC ACID COMPOUNDS, COMPOSITIONS AND METHODS” (Trustees of Tufts College, priority 2021, published 2024).

This series in a line: Radiochemical purity over time at room temperature (radio-HPLC). Format: physicochemical. The method, then: The labeling efficiency was analyzed by instant thin layer chromatography (iTLC) and was typically >98%. For iTLC analysis, 1 μL of diluted labeling solution was applied to a strip of iTLC-SA chromatography paper (Agilent P/N A120B12, 114×2.5 mm) and developed in 0.1M citrate buffer (8 cm solvent migration) to assess free ^177Lu (Rf>0.5) and [^177Lu]-6555 (Rf˜0). The iTLC strips were analyzed using an Eckert & Ziegler AR-2000 Radio-TLC Imaging Scanner. The radiochemical purity was analyzed by high performance chromatography (HPLC) and was typically >90%. Briefly, the product was analyzed using a Phenomenex Luna 3.0 μm C18(2), 100 Å, 150 mm×4.6 mm column. Eluent A: 50 mM ammonium acetate in water, eluent B: acetonitrile. Gradient: 2% B from 0-5 min; 2% to 26% B from 5-20 min; 26% to 98% B from 20-25 min; 98% to 2% B from 25-26 min; 2% B from 26-30 min. Flow rate: 1.0 mL/min, Radio-HPLC detector: NaI (Eckert & Zeigler FC-1000), UV: 215 nm. The radiochemical purity remained >90% for three days at room temperature.
The above depicted radiopharmaceutical [^177Lu]-6952 can be prepared as described in Example 20 using the radiochemical precursor 6952 (Example 21 above). The labeling efficiency was analyzed by instant thin layer chromatography (iTLC) and was typically >98%. […] The iTLC strips were analyzed using an Eckert & Ziegler AR-2000 Radio-TLC Imaging Scanner. The radiochemical purity was analyzed by high performance chromatography (HPLC) and was typically >90%. Briefly, the product was analyzed using a Phenomenex Luna 3.0 μm C18(2), 100A, 150 mm×4.6 mm column. […]
The labeling efficiency was analyzed by instant thin layer chromatography (iTLC) and was typically >95%. […] The iTLC strips were analyzed using an Eckert & Ziegler AR-2000 Radio-TLC Imaging Scanner. The radiochemical purity was analyzed by high performance chromatography (HPLC) and was typically >95%. Briefly, the product was analyzed using a Phenomenex Luna 3.0 μm C18(2), 100A, 150 mm×4.6 mm column. […]
The labeling efficiency was analyzed by instant thin layer chromatography (iTLC) and was typically >95%. […]

[1] abbreviates: for three days at room temperature, formulation with N-acetyl methionine.

Consider `C[C@@H](NC(=O)[C@H]1CC[C@H](CNC(=O)CN2CCN3CCN4CCN(CC2)CC(=O)O[CH2][Lu]([CH2]COC(=O)C3)[CH2]COC(=O)C4)CC1)C(=O)N1CCC[C@H]1B(O)O` [[^177Lu]-6952], for which the radiochemical purity remained under setting [1] is on record as more than 90%.

Under setting [1], `C[C@@H](NC(=O)c1ccc(CNC(=O)CN2CCN3CCN4CCN(CC2)CC(=O)O[CH2][Lu]([CH2]COC(=O)C3)[CH2]COC(=O)C4)cc1)C(=O)N1CCC[C@H]1B(O)O` [[^177Lu]-6555] gave a radiochemical purity remained of more than 90%.

Consider `C[C@@H](NC(=O)c1ccc(CNC(=O)CN2CCN3CCN4CCN(CC2)CC(=O)O[CH2][Ga]([CH2]COC(=O)C3)[CH2]COC(=O)C4)cc1)C(=O)N1CCC[C@H]1B(O)O` [[^68Ga]-6555], for which the radiochemical purity remained (for 4 hours at room temperature) is more than 95%.
